Measurements: EP3212201B1, “NUCLEOSIDE KINASE INHIBITORS” (BCI Pharma, priority 2014, dated 2016)

What was measured:
Test in all cases: FRET-based coupled-enzyme protein kinase inhibition assay
Format in all cases: biochemical
Conditions in all cases: compound at 10 µM, 1% DMSO
AURKA (Aurora A) = target: T1, AURKA (Aurora A) (Homo sapiens, UniProt O14965)
T1 sequence (O14965 1-403): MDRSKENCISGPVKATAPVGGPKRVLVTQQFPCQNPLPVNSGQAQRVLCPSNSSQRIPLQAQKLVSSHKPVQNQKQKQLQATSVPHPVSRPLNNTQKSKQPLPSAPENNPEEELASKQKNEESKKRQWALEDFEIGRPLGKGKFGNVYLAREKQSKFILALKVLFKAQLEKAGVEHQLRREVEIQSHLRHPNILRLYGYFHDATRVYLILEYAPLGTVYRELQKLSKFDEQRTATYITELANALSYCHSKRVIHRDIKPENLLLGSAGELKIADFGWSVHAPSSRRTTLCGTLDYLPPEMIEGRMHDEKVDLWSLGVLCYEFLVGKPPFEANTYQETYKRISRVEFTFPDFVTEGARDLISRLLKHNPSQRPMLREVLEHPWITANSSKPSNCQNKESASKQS
How it was run: (§1)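 FRET peptide (coumarin donor, fluorescein acceptor) was phosphorylated by each kinase in 50 mM HEPES pH 7.5, 10 mM MgCl2, 1 mM EDTA, 0.01% BRIJ-35 for 60 min at room temperature. ATP was at apparent Km, compounds in 1% DMSO. Protease development reagent then cleaved non-phosphorylated peptide over 60 min.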

BTK = BTK (Homo sapiens, UniProt Q06187)
How it was run: as §1

INSR = INSR (Homo sapiens, UniProt P06213)
How it was run: as §1

RPS6KA3 (RSK2) = RPS6KA3 (RSK2) (Homo sapiens, UniProt P51812)
How it was run: as §1

INSR, sequence (P06213 28-1382, species assumed): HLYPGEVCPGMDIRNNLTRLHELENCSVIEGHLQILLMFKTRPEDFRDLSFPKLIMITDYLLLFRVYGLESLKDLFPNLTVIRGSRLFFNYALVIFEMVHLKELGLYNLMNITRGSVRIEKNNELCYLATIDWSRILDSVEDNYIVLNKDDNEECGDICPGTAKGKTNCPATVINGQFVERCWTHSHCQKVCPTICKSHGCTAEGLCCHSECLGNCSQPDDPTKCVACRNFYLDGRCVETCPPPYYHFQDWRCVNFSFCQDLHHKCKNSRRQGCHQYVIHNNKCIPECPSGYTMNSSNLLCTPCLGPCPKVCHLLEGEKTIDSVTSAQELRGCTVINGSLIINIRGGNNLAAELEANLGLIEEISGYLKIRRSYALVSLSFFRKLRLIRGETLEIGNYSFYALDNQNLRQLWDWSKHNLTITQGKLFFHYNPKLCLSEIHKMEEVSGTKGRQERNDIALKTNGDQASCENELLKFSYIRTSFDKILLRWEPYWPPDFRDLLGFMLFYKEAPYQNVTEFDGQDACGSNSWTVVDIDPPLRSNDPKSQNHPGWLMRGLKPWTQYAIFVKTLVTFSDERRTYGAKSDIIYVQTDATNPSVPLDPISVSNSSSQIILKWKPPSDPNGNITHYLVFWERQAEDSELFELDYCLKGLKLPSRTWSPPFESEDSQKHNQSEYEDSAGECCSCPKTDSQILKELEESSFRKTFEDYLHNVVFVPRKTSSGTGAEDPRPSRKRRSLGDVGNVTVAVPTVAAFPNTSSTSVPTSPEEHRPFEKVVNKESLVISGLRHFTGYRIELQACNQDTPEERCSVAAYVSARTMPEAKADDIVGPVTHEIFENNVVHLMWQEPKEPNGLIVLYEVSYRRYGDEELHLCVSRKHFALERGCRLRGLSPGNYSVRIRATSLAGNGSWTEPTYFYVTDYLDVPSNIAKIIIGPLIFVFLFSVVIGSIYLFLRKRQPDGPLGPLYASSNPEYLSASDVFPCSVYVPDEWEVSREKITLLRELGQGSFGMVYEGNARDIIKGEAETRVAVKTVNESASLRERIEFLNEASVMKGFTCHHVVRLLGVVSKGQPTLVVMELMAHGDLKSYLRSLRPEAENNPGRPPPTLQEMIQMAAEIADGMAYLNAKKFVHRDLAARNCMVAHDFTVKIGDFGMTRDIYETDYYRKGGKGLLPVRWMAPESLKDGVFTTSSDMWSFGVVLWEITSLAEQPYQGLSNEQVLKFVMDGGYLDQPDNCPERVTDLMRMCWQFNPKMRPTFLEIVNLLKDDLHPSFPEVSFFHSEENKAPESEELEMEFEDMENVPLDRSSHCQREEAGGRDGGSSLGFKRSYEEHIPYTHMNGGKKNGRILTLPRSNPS
RPS6KA3 (RSK2), sequence (P51812 whole entry, species assumed): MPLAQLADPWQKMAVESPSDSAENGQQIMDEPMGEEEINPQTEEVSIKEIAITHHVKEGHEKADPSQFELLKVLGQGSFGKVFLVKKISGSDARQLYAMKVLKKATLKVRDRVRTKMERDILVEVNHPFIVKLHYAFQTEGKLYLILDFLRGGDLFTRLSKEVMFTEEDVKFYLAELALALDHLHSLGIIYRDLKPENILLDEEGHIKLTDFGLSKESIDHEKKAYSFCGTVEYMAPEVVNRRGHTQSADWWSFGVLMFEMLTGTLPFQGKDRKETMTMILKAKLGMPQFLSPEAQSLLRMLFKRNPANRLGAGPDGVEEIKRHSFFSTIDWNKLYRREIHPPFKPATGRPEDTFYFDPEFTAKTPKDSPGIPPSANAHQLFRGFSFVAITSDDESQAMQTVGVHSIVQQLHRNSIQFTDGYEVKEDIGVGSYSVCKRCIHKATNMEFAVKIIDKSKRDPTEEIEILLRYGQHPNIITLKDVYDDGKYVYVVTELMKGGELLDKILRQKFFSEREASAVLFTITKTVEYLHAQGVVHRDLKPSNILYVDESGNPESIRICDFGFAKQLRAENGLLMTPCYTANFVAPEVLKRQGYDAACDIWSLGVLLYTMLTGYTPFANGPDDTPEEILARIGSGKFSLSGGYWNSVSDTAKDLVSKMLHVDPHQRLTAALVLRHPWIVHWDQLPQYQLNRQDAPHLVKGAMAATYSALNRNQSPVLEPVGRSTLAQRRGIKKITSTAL
BTK, sequence (Q06187 whole entry, species assumed): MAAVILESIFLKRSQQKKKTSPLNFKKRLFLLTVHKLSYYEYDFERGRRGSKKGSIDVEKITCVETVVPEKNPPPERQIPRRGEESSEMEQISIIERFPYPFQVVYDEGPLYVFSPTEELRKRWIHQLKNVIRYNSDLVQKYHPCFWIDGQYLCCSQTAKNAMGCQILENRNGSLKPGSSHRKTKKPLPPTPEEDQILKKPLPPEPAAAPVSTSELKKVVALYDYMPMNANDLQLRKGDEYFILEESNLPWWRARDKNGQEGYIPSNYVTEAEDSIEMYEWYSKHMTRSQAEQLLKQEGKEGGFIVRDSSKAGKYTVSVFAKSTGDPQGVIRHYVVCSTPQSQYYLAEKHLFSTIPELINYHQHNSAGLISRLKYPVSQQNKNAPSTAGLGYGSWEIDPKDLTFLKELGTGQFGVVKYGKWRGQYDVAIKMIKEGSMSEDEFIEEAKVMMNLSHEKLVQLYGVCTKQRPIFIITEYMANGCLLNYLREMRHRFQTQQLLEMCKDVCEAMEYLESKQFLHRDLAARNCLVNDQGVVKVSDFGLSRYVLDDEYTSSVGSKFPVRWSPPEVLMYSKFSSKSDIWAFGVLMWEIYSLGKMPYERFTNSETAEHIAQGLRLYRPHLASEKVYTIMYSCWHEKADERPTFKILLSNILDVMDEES

Nc1ncnc2c1ncn2[C@@H]1O[C@H](COC(=O)NCCCc2nc3ccccc3[nH]2)[C@@H](O)[C@H]1O [Compound C1]
inhibition at 10 µM (AURKA (Aurora A)): 9% | inhibition at 10 µM (BTK): 9% | inhibition at 10 µM (INSR): 0% | inhibition at 10 µM (RPS6KA3 (RSK2)): 8%

C[C@@H](NC(=O)OC[C@H]1O[C@@H](n2cnc3c(N)ncnc32)[C@H](O)[C@@H]1O)c1ccc(Cl)cc1 [Compound C4]
inhibition at 10 µM (AURKA (Aurora A)): 8% | inhibition at 10 µM (BTK): 2% | inhibition at 10 µM (INSR): 5% | inhibition at 10 µM (RPS6KA3 (RSK2)): 9%

Nc1ncnc2c1ncn2[C@@H]1O[C@H](COC(=O)NC[C@H](O)CO)[C@@H](O)[C@H]1O [Compound C8]
inhibition at 10 µM (AURKA (Aurora A)): -7% | inhibition at 10 µM (BTK): 4% | inhibition at 10 µM (INSR): 2% | inhibition at 10 µM (RPS6KA3 (RSK2)): 19%

Nc1ncnc2c1ncn2[C@@H]1O[C@H](COC(=O)N2CCC[C@H]2CO)[C@@H](O)[C@H]1O [Compound C9]
inhibition at 10 µM (AURKA (Aurora A)): -5% | inhibition at 10 µM (BTK): 9% | inhibition at 10 µM (INSR): 4% | inhibition at 10 µM (RPS6KA3 (RSK2)): 1%

Nc1ncnc2c1ncn2[C@@H]1O[C@H](COC(=O)N[C@@H]2CCN(Cc3ccccc3)C2)[C@@H](O)[C@H]1O [Compound C10]
inhibition at 10 µM (AURKA (Aurora A)): -1% | inhibition at 10 µM (BTK): 7% | inhibition at 10 µM (INSR): 3% | inhibition at 10 µM (RPS6KA3 (RSK2)): 8%

Nc1ncnc2c1ncn2[C@@H]1O[C@H](COC(=O)N2CCN(Cc3ccccc3)CC2CO)[C@@H](O)[C@H]1O (stereo partly shown) [Compound C13]
inhibition at 10 µM (AURKA (Aurora A)): -1% | inhibition at 10 µM (BTK): 9% | inhibition at 10 µM (INSR): -3% | inhibition at 10 µM (RPS6KA3 (RSK2)): 3%

CC(C)N1CCC(NC(=O)OC[C@H]2O[C@@H](n3cnc4c(N)ncnc43)[C@H](O)[C@@H]2O)CC1 [Compound C19]
inhibition at 10 µM (AURKA (Aurora A)): 6% | inhibition at 10 µM (BTK): -1% | inhibition at 10 µM (INSR): 0% | inhibition at 10 µM (RPS6KA3 (RSK2)): 1%

Nc1ncnc2c1ncn2[C@@H]1O[C@H](COC(=O)NCCN2CCCC2=O)[C@@H](O)[C@H]1O [Compound C22]
inhibition at 10 µM (AURKA (Aurora A)): 5% | inhibition at 10 µM (BTK): -1% | inhibition at 10 µM (INSR): -5% | inhibition at 10 µM (RPS6KA3 (RSK2)): 2%

Nc1ncnc2c1ncn2[C@@H]1O[C@H](COC(=O)N2CCN(CCc3ccccc3)CC2)[C@@H](O)[C@H]1O [Compound C26]
inhibition at 10 µM (AURKA (Aurora A)): 1% | inhibition at 10 µM (BTK): 0% | inhibition at 10 µM (INSR): 2% | inhibition at 10 µM (RPS6KA3 (RSK2)): 0%

CN1CCN(CCNC(=O)OC[C@H]2O[C@@H](n3cnc4c(N)ncnc43)[C@H](O)[C@@H]2O)CC1 [Compound C46]
inhibition at 10 µM (AURKA (Aurora A)): 3% | inhibition at 10 µM (BTK): 0% | inhibition at 10 µM (INSR): 0% | inhibition at 10 µM (RPS6KA3 (RSK2)): 6%

Nc1ncnc2c1ncn2[C@@H]1O[C@H](COC(=O)N2CCC(Cc3ccc(F)cc3)C2)[C@@H](O)[C@H]1O (stereo partly shown) [Compound C66]
inhibition at 10 µM (AURKA (Aurora A)): 4% | inhibition at 10 µM (BTK): 11% | inhibition at 10 µM (INSR): -5% | inhibition at 10 µM (RPS6KA3 (RSK2)): 6%

N#CCCN1CCN(C(=O)OC[C@H]2O[C@@H](n3cnc4c(N)ncnc43)[C@H](O)[C@@H]2O)CC1 [Compound C70]
inhibition at 10 µM (AURKA (Aurora A)): -1% | inhibition at 10 µM (BTK): 1% | inhibition at 10 µM (INSR): -2% | inhibition at 10 µM (RPS6KA3 (RSK2)): 2%

CN(C)CCNC(=O)OC[C@H]1O[C@@H](n2cnc3c(N)ncnc32)[C@H](O)[C@@H]1O [Compound C85]
inhibition at 10 µM (AURKA (Aurora A)): -11% | inhibition at 10 µM (BTK): 0% | inhibition at 10 µM (INSR): 3% | inhibition at 10 µM (RPS6KA3 (RSK2)): 7%

Nc1ncnc2c1ncn2[C@@H]1O[C@H](COC(=O)N2CCN(C(=O)N3CCOCC3)CC2)[C@@H](O)[C@H]1O [Compound C89]
inhibition at 10 µM (AURKA (Aurora A)): -7% | inhibition at 10 µM (BTK): 4% | inhibition at 10 µM (INSR): 0% | inhibition at 10 µM (RPS6KA3 (RSK2)): 0%

CS(=O)(=O)N1CC2(CCN(C(=O)OC[C@H]3O[C@@H](n4cnc5c(N)ncnc54)[C@H](O)[C@@H]3O)CC2)c2ccccc21 [Compound C98]
inhibition at 10 µM (AURKA (Aurora A)): 0% | inhibition at 10 µM (BTK): 16% | inhibition at 10 µM (INSR): -2% | inhibition at 10 µM (RPS6KA3 (RSK2)): 4%

Nc1ncnc2c1ncn2[C@@H]1O[C@H](COC(=O)N2CCS(=O)(=O)CC2)[C@@H](O)[C@H]1O [Compound C100]
inhibition at 10 µM (AURKA (Aurora A)): -7% | inhibition at 10 µM (BTK): -5% | inhibition at 10 µM (INSR): -2% | inhibition at 10 µM (RPS6KA3 (RSK2)): 1%
